This note sets out measurements from patent publication US7728012B2, “Carboxamide compounds and their use as calpain inhibitors” (Abbott GmbH & Co. KG, priority 2006, dated 2010).

For experiment [1], the target named is T1, calpain-I isolated from human erythrocytes (Homo sapiens, UniProt P07384).
T1 construct: calpain-I—isolated from human erythrocytes; purchased Calbiochem 208713; host or cells: human erythrocytes (tissue isolate)
T1 sequence (P07384 1-714): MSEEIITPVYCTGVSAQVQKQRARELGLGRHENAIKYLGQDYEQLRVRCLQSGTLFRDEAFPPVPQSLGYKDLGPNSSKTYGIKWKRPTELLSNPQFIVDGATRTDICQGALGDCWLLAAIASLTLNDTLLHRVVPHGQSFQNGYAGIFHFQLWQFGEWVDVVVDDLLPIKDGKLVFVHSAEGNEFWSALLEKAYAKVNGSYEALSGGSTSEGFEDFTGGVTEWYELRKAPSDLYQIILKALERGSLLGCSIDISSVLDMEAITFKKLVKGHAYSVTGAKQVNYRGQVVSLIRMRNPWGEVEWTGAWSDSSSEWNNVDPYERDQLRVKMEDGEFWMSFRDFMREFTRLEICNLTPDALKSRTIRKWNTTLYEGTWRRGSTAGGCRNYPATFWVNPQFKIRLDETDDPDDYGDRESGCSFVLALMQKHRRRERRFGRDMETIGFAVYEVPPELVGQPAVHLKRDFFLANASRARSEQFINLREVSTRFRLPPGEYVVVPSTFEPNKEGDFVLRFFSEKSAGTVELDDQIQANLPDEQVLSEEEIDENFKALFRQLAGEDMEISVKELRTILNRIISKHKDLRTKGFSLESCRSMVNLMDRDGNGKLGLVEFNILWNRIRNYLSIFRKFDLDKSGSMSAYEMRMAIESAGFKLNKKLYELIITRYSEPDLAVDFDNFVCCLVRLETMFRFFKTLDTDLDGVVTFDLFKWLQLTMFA
T1 sequence (P04632 1-268 partner): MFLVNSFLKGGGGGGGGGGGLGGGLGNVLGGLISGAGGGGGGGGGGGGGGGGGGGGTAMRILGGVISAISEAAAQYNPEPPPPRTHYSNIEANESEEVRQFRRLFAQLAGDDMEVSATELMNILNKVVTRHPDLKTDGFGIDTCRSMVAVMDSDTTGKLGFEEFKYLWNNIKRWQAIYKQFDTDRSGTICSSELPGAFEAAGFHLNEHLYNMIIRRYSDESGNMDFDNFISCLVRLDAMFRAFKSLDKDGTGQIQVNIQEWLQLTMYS
Description: Calpain I kinetic fluorescence enzyme inhibition assay. In kind it is biochemical. Particulars: apparent Ki from IC50 by Cheng-Prussoff; average of 2 to 4 dose-effect plots. On the procedure: (§1) The following solutions and buffers were employed: • HBS (for 40 ml): 800 μl M HEPES; 2.16 ml 100 mM KCl; 4.8 ml 1M NaCl; 3.59 ml 5% glucose; 60 μl μM MgSO4; 400 μl 100 mM Na pyruvate, 28.19 ml water; pH 7.2-7.5. • lysis buffer (for 20 ml): 400 μl M Tris pH 8.2; 2.74 ml 1M NaCl; 520 μl 0.5M EDTA; 2 ml 10% triton X-100; 0.8 ml (=1:25) CompletePlus (1 tablet/2 ml H2O); 200 μl 100 mM Pefabloc; 13.34 ml water, pH 8.2. • TBST (10×) (for 1 l): 100 mM Tris (12.1 g); 1.5M NaCl (87 g); 1% Tween 20 (10 g), adjusted to pH 8. I Enzyme Inhibition In Vitro: • Testing for blockade of the corresponding enzymic activities was carried out by means of kinetic fluorescence assays (excitation 390 nm, emission 460 nm). • Apparent Ki values were calculated from the experimentally determined IC50 values by the Cheng-Prussoff relation assuming a reversible competitive enzyme inhibition. The Km values of the substrates used under the assay conditions indicated above were: 90 μM (Z-Phe-Arg-AMC, cathepsin B), 10 μM (Z-Gly-Pro-Arg-AMC, cathepsin K), 2 μM (Z-Phe-Arg-AMC, cathepsin L), and 30 μM (Z-Val-Val-Arg-AMC, cathepsin S). • The indicated Ki values are averages of the inhibition constants calculated on the basis of 2 to 4 independent dose-effect plots.
(§2) The following assays were used: • 1. Calpain I: • 20 nM calpain-I—isolated from human erythrocytes (Calbiochem #208713), 100 μM Suc-Leu-Tyr-AMC (Bachem #1-1355) as substrate in buffer with 62 mM imidazole, 0.3 mM CaCl2, 0.10% CHAPS, 0.05% BSA, 1 mM DTT at pH 7.3 and room temperature. • 2. Cathepsin B: • 0.25 nM cathepsin B—isolated from human liver (Calbiochem #219362), 100 μM Z-Phe-Arg-AMC (Bachem #I-1160) as substrate 50 mM MES, 2 mM EDTA, 0.05% Brij 35, 2.5 mM L-cysteine, pH 6.0, room temperature. • 3. Cathepsin K: • 3 nM cathepsin K—activated from recombinant human procathepsin K from E. coli (Calbiochem #342001), 10 μM Z-Gly-Pro-Arg-AMC (Biomol #P-142) as substrate in 50 mM MES, 2 mM EDTA, 0.05% Brij 35, 2.5 mM L-cysteine, pH 6.0, room temperature. • 4. Cathepsin L: • 1 nM cathepsin L—isolated from human liver (Calbiochem #219402), 2 μM Z-Phe-Arg-AMC (Bachem #1-1160) as substrate in 50 mM MES, 2 mM EDTA, 0.05% Brij 35, 2.5 mM L-cysteine, pH 6.0, room temperature. • 5. Cathepsin S: • 0.5 nM recombinant human cathepsin S from E. coli (Calbiochem #219343), 20 μM Z-Val-Val-Arg-AMC (Bachem #1-1540) as substrate in 50 mM MES, 2 mM EDTA, 0.05% Brij 35, 2.5 mM L-cysteine, pH 6.0, room temperature. • The results of the in vitro determination are indicated in Table 1. The following abbreviations are used in Table 1: • The “Calpain activity” column, ++ stands for a calpain Ki (Ki(calpain)) of ≦40 nM and + means: 40 nM<Ki(Calpain)≦100 nM. • The “Sel. cat. B” column indicates the Ki(cathepsin B)/Ki(calpain) ratio. In this connection, ++ means a Ki(cathepsin B)/Ki(calpain) ratio of ≧30 and + means 10≦Ki(cathepsin B)/Ki(calpain)<30. • The “Sel. cat. K” column indicates the Ki(cathepsin K)/Ki(calpain) ratio. In this connection, ++ means a Ki(cathepsin K)/Ki(calpain) ratio of ≧30 and + means 10≦Ki(cathepsin K)/Ki(calpain)<30. • The “Sel. cat. L” column indicates the Ki(cathepsin L)/Ki(calpain) ratio. In this connection, ++ means a Ki(cathepsin L)/Ki(calpain) ratio of ≧50 and + means 30≦Ki(cathepsin L)/Ki(calpain)<50. • The “Sel. cat. S” column indicates the Ki(cathepsin S)/Ki(calpain) ratio. In this connection, ++ means a Ki(cathepsin S)/Ki(calpain) ratio of ≧100 and + means 50≦Ki(cathepsin S)/Ki(calpain)<100.

Experiment [2] has as its target T2, recombinant human cathepsin S (Homo sapiens, UniProt P25774).
T2 construct: purchased Calbiochem 219343; host or cells: E. coli
Description: Cathepsin S kinetic fluorescence enzyme inhibition assay. The experiment is classed as biochemical. Conditions: selectivity ratio versus calpain I. As to the method:
as §1, §2

T2 sequence (P25774 115-331): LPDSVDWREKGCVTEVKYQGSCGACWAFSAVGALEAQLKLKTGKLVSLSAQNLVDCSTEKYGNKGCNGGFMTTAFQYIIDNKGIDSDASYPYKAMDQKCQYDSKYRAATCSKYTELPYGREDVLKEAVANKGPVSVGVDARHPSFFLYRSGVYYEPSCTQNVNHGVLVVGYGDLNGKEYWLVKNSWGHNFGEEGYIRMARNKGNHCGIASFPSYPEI

In the case of `NC(=O)C(=O)C(Cc1ccccc1)NC(=O)c1cccnc1-n1cnc(-c2ccc(N3CCOCC3)cc2)c1` (stereo not drawn) [Example 14, N-(3-Amino-1-benzyl-2,3-dioxopropyl)-2-[4-(4-morpholin-4-ylphenyl)-1H-imidazol-1-yl]nicotinamide], the Ki in experiment [1] fell in the range of 40 to 100 nM. For the same compound, the “Sel cat. S (Ki(cathepsin S)/Ki(calpain) ratio)” value in experiment [2] is recorded as “++ (Ki(cathepsin S)/Ki(calpain) ratio of ≧100)”.
For the compound `CCN(CC)c1ccc(-c2ccn(-c3ncccc3C(=O)NC(Cc3ccccc3)C(=O)C(N)=O)n2)cc1` (stereo not drawn) [Example 42, N-(3-Amino-1-benzyl-2,3-dioxopropyl)-2-{3-[4-(diethylamino)phenyl]-1H-pyrazol-1-yl}nicotinamide], in experiment [1], the Ki was at most 40 nM. Further, in experiment [2], the “Sel cat. S (Ki(cathepsin S)/Ki(calpain) ratio)” value was “++ (Ki(cathepsin S)/Ki(calpain) ratio of ≧100)”.
The like results for `CCN(CC)Cc1ccc(-c2ccn(-c3ncccc3C(=O)NC(Cc3ccccc3)C(=O)C(N)=O)n2)cc1.Cl` (stereo not drawn) [Example 43, N-(3-Amino-1-benzyl-2,3-dioxopropyl)-2-(3-{4-[(diethylamino)methyl]phenyl}-1H-pyrazol-1-yl)nicotinamide hydrochloride] were, in that order, 40 to 100 nM and “++ (Ki(cathepsin S)/Ki(calpain) ratio of ≧100)”.
`CCCCC(NC(=O)c1cccnc1-n1ccc(-c2ccc(CN(CC)CC)cc2)n1)C(=O)C(N)=O` (stereo not drawn) [Example 44, N-{1-[Amino(oxo)acetyl]pentyl}-2-(3-{4-[(diethylamino)methyl]phenyl}-1H-pyrazol-1-yl)nicotinamide]: the Ki in experiment [1] was at most 40 nM. In addition, in experiment [2], the “Sel cat. S (Ki(cathepsin S)/Ki(calpain) ratio)” value is given as “+ (50≦Ki(cathepsin S)/Ki(calpain)<100)”.
The like results for `CCCCC(NC(=O)c1cccnc1-n1ccc(-c2ccc(CN3CCOCC3)cc2)n1)C(=O)C(N)=O` (stereo not drawn) [Example 45, N-{1-[Amino(oxo)acetyl]pentyl}-2-{3-[4-(morpholin-4-ylmethyl)phenyl]-1H-pyrazol-1-yl}nicotinamide] were, in that order, at most 40 nM and “+ (50≦Ki(cathepsin S)/Ki(calpain)<100)”.
On to `NC(=O)C(=O)C(Cc1ccccc1)NC(=O)c1cccnc1-n1ccc(-c2ccc(CN3CCOCC3)cc2)n1` (stereo not drawn) [Example 46, N-(3-Amino-1-benzyl-2,3-dioxopropyl)-2-{3-[4-(morpholin-4-ylmethyl)phenyl]-1H-pyrazol-1-yl}nicotinamide], for which the Ki in experiment [1] was 40 to 100 nM. Besides, the “Sel cat. S (Ki(cathepsin S)/Ki(calpain) ratio)” value in experiment [2] was “++ (Ki(cathepsin S)/Ki(calpain) ratio of ≧100)”.
The like results for `CCCCC(NC(=O)c1cccnc1-n1ccc(-c2ccc(N(CC)CC)cc2)n1)C(=O)C(N)=O` (stereo not drawn) [Example 47, N-{1-[Amino(oxo)acetyl]pentyl}-2-{3-[4-(diethylamino)phenyl]-1H-pyrazol-1-yl}nicotinamide] were, in that order, at most 40 nM and “++ (Ki(cathepsin S)/Ki(calpain) ratio of ≧100)”.
The corresponding values for `Cl.NC(=O)C(=O)C(Cc1ccccc1)NC(=O)c1cccnc1-n1ccc(-c2cccc(CN3CCOCC3)c2)n1` (stereo not drawn) [Example 52, N-(3-Amino-1-benzyl-2,3-dioxopropyl)-2-{3-[3-(morpholin-4-ylmethyl)phenyl]-1H-pyrazol-1-yl}nicotinamide hydrochloride] are 40 to 100 nM and “++ (Ki(cathepsin S)/Ki(calpain) ratio of ≧100)”.
The corresponding values for `NC(=O)C(=O)C(Cc1ccccc1)NC(=O)c1cccnc1-n1ccc(-c2ccc(-n3ccnc3)cc2)n1` (stereo not drawn) [Example 101, N-[3-Amino-2,3-dioxo-1-(phenylmethyl)propyl]-2-{3-[4-(1H-imidazol-1-yl)phenyl]-1H-pyrazol-1-yl}pyridine-3-carboxamide] are at most 40 nM and “++ (Ki(cathepsin S)/Ki(calpain) ratio of ≧100)”.
As for `NC(=O)C(=O)C(Cc1ccccc1)NC(=O)c1cccnc1-n1cc(-c2ccccc2F)cn1` (stereo not drawn) [Example 104, N-[3-Amino-2,3-dioxo-1-(phenylmethyl)propyl]-2-[4-(2-fluorophenyl)-1H-pyrazol-1-yl]pyridine-3-carboxamide], the Ki in experiment [1] was at most 40 nM. In addition, the “Sel cat. S (Ki(cathepsin S)/Ki(calpain) ratio)” value in experiment [2] is “+ (50≦Ki(cathepsin S)/Ki(calpain)<100)”.
Regarding `NC(=O)C(=O)C(Cc1ccccc1)NC(=O)c1cccnc1-n1cc(CCN2CCOCC2)c(-c2ccc(F)cc2)n1` (stereo not drawn) [Example 165, N-[3-Amino-2,3-dioxo-1-(phenylmethyl)propyl]-2-[3-(4-fluorophenyl)-4-(2-morpholin-4-ylethyl)-1H-pyrazol-1-yl]pyridine-3-carboxamide], the Ki in experiment [1] was 40 to 100 nM. For the same compound, in experiment [2], the “Sel cat. S (Ki(cathepsin S)/Ki(calpain) ratio)” value is “++ (Ki(cathepsin S)/Ki(calpain) ratio of ≧100)”.
For the compound `NC(=O)C(=O)C(Cc1ccccc1)NC(=O)c1cccnc1-n1cc(CN2CCOCC2)c(-c2cccc(C(F)(F)F)c2)n1` (stereo not drawn) [Example 177, N-[3-Amino-2,3-dioxo-1-(phenylmethyl)propyl]-2-{4-(morpholin-4-ylmethyl)-3-[3-(trifluoromethyl)phenyl]-1H-pyrazol-1-yl}pyridine-3-carboxamide], the Ki in experiment [1] is 40 to 100 nM. Moreover, in experiment [2], the “Sel cat. S (Ki(cathepsin S)/Ki(calpain) ratio)” value is given as “++ (Ki(cathepsin S)/Ki(calpain) ratio of ≧100)”.
